Source: US20060069095A1, “Azole derivatives” (priority 2004, published 2006)

Columns and labels:
[1] = system: HEK293 cells; assay: CellTiter-Glo Luminescent Cell Viability Assay in HEK293 cells; format: cell-based; details: Homo sapiens, 168 h, 7 days incubation, 3 μM to 0.00015 μM
From the text: CellTiter-Glo™ Assay in HEK293 Cells
The CellTiter-Glo™ Luminescent Cell Viability Assay (Promega) is a homogeneous method of determining the number of viable cells in culture based on quantitation of the ATP present, which signals the presence of metabolically active cells.
HEK293 cells (human embryonic kidney cell line transformed by Adenovirus 5 fragments, ATCC-No. CRL 1573) were cultivated in Dulbecco's Modified Eagle Medium (DMEM) with Glutamax™ (Invitrogen, 31966-021), 5% Fetal Calf Serum (FCS, Sigma Cat-No. F4135 (FBS)), 100 Units/ml penicillin/100 μg/ml streptomycin (=Pen/Strep from Invitrogen Cat. No. 15140)., For the assay the cells were seeded in 384 well plates, 5000 cells per well, in the same medium. The next day the test compounds were added in various concentrations ranging from 3 μM to 0.00015 μM (10 concentrations, 1:3 diluted). After 7 days the CellTiter-Glo™ assay was done according to the instructions of the manufacturer (CellTiter-Glo™ Luminescent Cell Viability Assay, from Promega). In brief: the cell-plate was equilibrated to room temperature for approximately 30 minutes and than the CellTiter-Glo™ reagent was added. The contents were carefully mixed for 15 minutes to induce cell lysis. After 45 minutes the luminescent signal was measured in Victor 2, (scanning multiwell spectrophotometer, Wallac).
Medium: Dulbecco's Modified Eagle Medium (DMEM) with Glutamax™ (Invitrogen, 31966-021), 5% Fetal Calf Serum (FCS, Sigma Cat-No. F4135 (FBS)), Pen/Strep (Invitrogen Cat. No. 15140).
Incubate 24 h at 37° C., 5% CO2
2nd Day: Induction (Substance Testing):
In general the dilution steeps are 1:3 • a) Add 8 μl of 10 mM stock solution of compound to 72 μl DMSO • b) dilute 9×1:3 (always 30 μl to 60 μl DMSO) in this DMSO dilution row (results in 10 wells with concentrations from 1000 μM to 0.06 μM) • c) dilute each concentration 1:4.8 (10 μl compound dilution to 38 μl medium) • d) dilute each concentration 1:10 (10 μl compound dilution to 90 μl medium) • e) add 10 μl of every concentration to 60 μl medium in the cell plate • resulting in final concentration of DMSO: 0.3% in every well • and resulting in final concentration of compounds from 3 μM to 0.00015 μM • Incubate 168 h (7 days) at 37° C., 5% CO2
Analysis: • Add 30 μl CellTiter-Glo™ Reagent/well, • shake 15 minutes at room temperature • incubate further 45 minutes at room temperature without shaking.
Measurement: • Victor 2 scanning multiwell spectrophotometer (Wallac), Luminescence mode • Determine IC50 with XL-fit (XLfit software (ID Business Solution Ltd., Guilford, Surrey, UK)).

[2] = system: A549 cells; assay: MTT assay in A549 cells; format: cell-based, human; details: Homo sapiens, 120 h, 5 days incubation, 3 μM to 0.15 nM
Protocol: To further show the activity of the compounds according to this invention, their effects on a […] was evaluated using a standard MTT-assay. MTT (3-(4,5-dimethylthiazol-2-yl)-2,5-diphenyl tetrazolium bromide) is widely used for the quantitative determination of cytotoxic effects or in vitro chemosensitivity of tumor cells. The assay is based on the cleavage of the yellow tetrazolium salt (MTT) to purple formazan crystals by metabolic active cells. For details, see Rubinstein, L. V., et al., J. Natl. Cancer Inst. 82 (1990) 1113-1118.
A549 cells (human lung carcinoma cell line ATTC-No. CCL-185) were cultivated in RPMI (Roswell Park Memorial Institute) 1640 medium with GlutaMAX™ I (Invitrogen, Cat-No. 61870-010), 2,5% Fetal Calf Serum (FCS, Sigma Cat-No. F4135 (FBS)); 100 Units/ml penicillin/100 μg/ml streptomycin (=Pen/Strep from Invitrogen Cat. No. 15140). For the assay the cells were seeded in 384 well plates, 900 cells per well, in the same medium. The next day compounds (dissolved 10 mM in dimethylsulfoxide (DMSO)) were added in various concentrations ranging from 3 μM to 0.15 nM (10 concentrations, 1:3 diluted). After 5 days MTT assay was done mainly according to the instructions of the manufacturer (Cell proliferation kit I, MTT, from Roche Molecular Biochemicals). In brief: MTT labeling reagent (3-(4,5-dimethylthiazol-2-yl)-2,5-diphenyltetrazolium bromide (MTT)) was added to a final concentration of 0.5 mg/ml, added and incubated for 4 hrs at 37° C., 5% CO2. During this incubation time purple formazan crystals are formed. After addition of the solubilization solution (20% Sodium Dodecyl Sulfate (SDS) in 0.02 M HCl) the plates were incubated overnight at 37° C., 5% CO2. After careful mixing plates were measured in Victor 2 scanning multiwell spectrophotometer (Wallac) at 550 nm.
A decrease in number of living cells results in a decrease in the total metabolic activity in the sample. The decrease directly correlates to the amount of purple color resulting from the solubilization of the purple formazan crystals.
• A549: 900 cells in 60 μl per well of 384 well plate (Greiner) • Medium: RPMI 1640, 2.5% FCS, glutamine, Pen/Strep. • Incubate 1 day at 37° C.
Induction: • Dilution of compound in DMSO: 3 μl 10 mM+27 μl DMSO, dilute 1:3 • Add 2 μl of compound dilution row to 95 μl of medium • Add 10 μl of compound dilution to 60 μl medium in test plate resulting in 0.3% DMSO per well • Incubate 120 h (5 days) at 37° C., 5% CO2
Analysis: • Add 7 μl MTT (5 mg/7 ml/well), incubate 4 h at 37° C. • Add 30 μl lysis buffer (20% SDS, 0.04 N HCl) per well • Incubate overnight at 37° C.
Measurement: • Victor 2 scanning multiwell spectrophotometer (Wallac) at 550 nm
Determination of IC50 was done using XL-fit (XLfit software (ID Business Solution Ltd., Guilford, Surrey, UK)).

| Structure (SMILES) | IC50 [1] | IC50 [2] |
| --- | --- | --- |
| FC(F)(F)Oc1ccc(/C=C/c2nc(COc3ccc(CCCCc4c[nH]nn4)cc3)co2)cc1 [Example 1.1, 4-[4-(4-{2-[(E)-2-(4-Trifluoromethoxy-phenyl)-vinyl]-oxazol-4-ylmethoxy}-phenyl)-butyl]-1H-[1,2,3]triazole] | 0.128 µM | 0.2 to 1 µM |
| CC(C)([PH2]=O)n1ncc(CCCCc2ccc(OCc3coc(/C=C/c4ccc(OC(F)(F)F)cc4)n3)cc2)n1 [Example 1.18, 2-(Dimethyl-phosphinoylmethyl)-4-[4-(4-{2-[(E)-2-(4-trifluoromethoxy-phenyl)-vinyl]-oxazol-4-ylmethoxy}-phenyl)-butyl]-2H-[1,2,3]triazole] | 0.005 to 0.25 µM |  |
| Cn1ncc(CCCCc2ccc(OCc3coc(/C=C/c4ccc(OC(F)(F)F)cc4)n3)cc2)n1 [Example 1.3, 2-Methyl-4-[4-(4-{2-[(E)-2-(4-trifluoromethoxy-phenyl)-vinyl]-oxazol-4-ylmethoxy}-phenyl)-butyl]-2H-[1,2,3]triazole] |  | 0.005 to 0.2 µM |
| Cn1nnc(CCCCc2ccc(OCc3coc(/C=C/c4ccc(OC(F)(F)F)cc4)n3)cc2)n1 [Example 2.3, Methyl-5-[4-(4-{2-[(E)-2-(4-trifluoromethoxy-phenyl)-vinyl]-oxazol-4-ylmethoxy}-phenyl)-butyl]-2H-tetrazole] |  | 0.005 to 0.2 µM |
| OCCn1nnc(CCCCc2ccc(OCc3coc(C=Cc4ccc(OC(F)(F)F)cc4)n3)cc2)n1 [Example 2.5, 2-{5-[4-(4-{2-[2-(4-Trifluoromethoxy-phenyl)-vinyl]-oxazol-4-ylmethoxy}-phenyl)-butyl]-tetrazol-2-yl}-ethanol] |  | 0.005 to 0.2 µM |
| N#CCn1nncc1CCCCc1ccc(OCc2coc(/C=C/c3ccc(OC(F)(F)F)cc3)n2)cc1 [Example 1.16, {5-[4-(4-{2-[(E)-2-(4-Trifluoromethoxy-phenyl)-vinyl]-oxazol-4-ylmethoxy}-phenyl)-butyl]-[1,2,3]triazol-1-yl}-acetonitrile] | 0.25 to 1.5 µM |  |
| FC(F)(F)Oc1ccc(/C=C/c2nc(COc3ccc(CCCCc4cnn(CCN5CCOCC5)n4)cc3)co2)cc1 [Example 1.19, 4-(2-{4-[4-(4-{2-[(E)-2-(4-Trifluoromethoxy-phenyl)-vinyl]-oxazol-4-ylmethoxy}-phenyl)-butyl]-[1,2,3]triazol-2-yl}-ethyl)-morpholine] | 0.005 to 0.25 µM |  |
| Cn1nnnc1CCCCc1ccc(OCc2coc(/C=C/c3ccc(OC(F)(F)F)cc3)n2)cc1 [Example 2.2, Methyl-5-[4-(4-{2-[(E)-2-(4-trifluoromethoxy-phenyl)-vinyl]-oxazol-4-ylmethoxy}-phenyl)-butyl]-1H-tetrazole] | 0.005 to 0.25 µM | 0.017 µM |
| FC(F)(F)Oc1ccc(/C=C/c2nc(COc3ccc(CCCCc4nn[nH]n4)cc3)co2)cc1 [Example 2.1, 5-[4-(4-{2-[(E)-2-(4-Trifluoromethoxy-phenyl)-vinyl]-oxazol-4-ylmethoxy}-phenyl)-butyl]-2H-tetrazole] | 0.25 to 1.5 µM | 0.2 to 1 µM |
| N#CCn1ncc(CCCCc2ccc(OCc3coc(/C=C/c4ccc(OC(F)(F)F)cc4)n3)cc2)n1 [Example 1.14, {4-[4-(4-{2-[(E)-2-(4-Trifluoromethoxy-phenyl)-vinyl]-oxazol-4-ylmethoxy}-phenyl)-butyl]-[1,2,3]triazol-2-yl}-acetonitrile] | 0.25 to 1.5 µM |  |
| OCCn1nncc1CCCCc1ccc(OCc2coc(/C=C/c3ccc(OC(F)(F)F)cc3)n2)cc1 [Example 1.7, 2-{5-[4-(4-{2-[(E)-2-(4-Trifluoromethoxy-phenyl)-vinyl]-oxazol-4-ylmethoxy}-phenyl)-butyl]-[1,2,3]triazol-1-yl}-ethanol] | 0.005 to 0.25 µM |  |
| Cn1cc(CCCCc2ccc(OCc3coc(/C=C/c4ccc(OC(F)(F)F)cc4)n3)cc2)nn1 [Example 1.4, 1-Methyl-4-[4-(4-{2-[(E)-2-(4-trifluoromethoxy-phenyl)-vinyl]-oxazol-4-ylmethoxy}-phenyl)-butyl]-1H-[1,2,3]triazole] | 0.005 to 0.25 µM | 0.005 to 0.2 µM |
| OCCn1cc(CCCCc2ccc(OCc3coc(/C=C/c4ccc(OC(F)(F)F)cc4)n3)cc2)nn1 [Example 1.6, 2-{4-[4-(4-{2-[(E)-2-(4-Trifluoromethoxy-phenyl)-vinyl]-oxazol-4-ylmethoxy}-phenyl)-butyl]-[1,2,3]triazol-1-yl}-ethanol] | 0.166 µM |  |
| CC(C)([PH2]=O)n1cc(CCCCc2ccc(OCc3coc(/C=C/c4ccc(OC(F)(F)F)cc4)n3)cc2)nn1 [Example 1.17, 1-(Dimethyl-phosphinoylmethyl)-4-[4-(4-{2-[(E)-2-(4-trifluoromethoxy-phenyl)-vinyl]-oxazol-4-ylmethoxy}-phenyl)-butyl]-1H-[1,2,3]triazole] | 0.25 to 1.5 µM |  |
| OCCn1nnnc1CCCCc1ccc(OCc2coc(C=Cc3ccc(OC(F)(F)F)cc3)n2)cc1 [Example 2.4, 2-{5-[4-(4-{2-[2-(4-Trifluoromethoxy-phenyl)-vinyl]-oxazol-4-ylmethoxy}-phenyl)-butyl]-tetrazol-1-yl}-ethanol] | 0.25 to 1.5 µM | 0.2 to 1 µM |
